Measurements published in patent publication US6482982B1, “Halogenated antituberculosis agents” (University of Sciences of Philadelphia, priority 2001, dated 2002).
In brackets after ≈: the same amount, converted by molar mass.

Key:
[1] = tested on: kanamycin-resistant Mycobacterium tuberculosis; test: microbe, parasite or virus in culture; format: cell-based; details: read-out: MIC KM-R
[2] = tested on: single-drug resistant M. tuberculosis strains; format: cell-based, Mycobacterium tuberculosis; details: judged from the ratios in Table 5
[3] = tested on: isoniazid-resistant Mycobacterium tuberculosis (ATCC 35822); test: microbe, parasite or virus in culture; format: cell-based; details: ATCC35822, read-out: MIC INH-R
[4] = tested on: M. tuberculosis H37Rv; test: MIC determination by Microplate Alamar Blue Assay (MABA) against H37Rv; format: cell-based, Mycobacterium tuberculosis; details: Mycobacterium tuberculosis, H37RV; Alamar assay, confirmatory testing alongside drug-resistant strains; read-out: MIC H37Rv
[5] = tested on: rifampin-resistant Mycobacterium tuberculosis (ATCC 35838); test: microbe, parasite or virus in culture; format: cell-based; details: ATCC35838, Alamar assay
[6] = tested on: ciprofloxacin-resistant Mycobacterium tuberculosis; test: microbe, parasite or virus in culture; format: cell-based; details: read-out: MIC CIP-R
[7] = tested on: ethambutol-resistant Mycobacterium tuberculosis; test: microbe, parasite or virus in culture; format: cell-based; details: read-out: MIC EMB-R

Row | Structure (SMILES) | MIC [1] [µg/mL] | cross-resistance with isoniazid, rifampin, ethambutol, kanamycin or ciprofloxacin [2] | MIC [3] [µg/mL] | MIC [4] [µg/mL] | MIC [5] [µg/mL] | MIC [6] [µg/mL] | MIC [7] [µg/mL]
1 | CC(=O)Nc1ccc(/C=N/NC(N)=S)cc1F [Compound 16, 4-Acetamido-3-fluorobenzaldehyde thiosemicarbazone] | ≤ 0.1 | no cross-resistance | ≤ 0.1 | ≤ 0.1 | ≤ 0.1 | ≤ 0.1 | 0.2 (≈ 0.787 µM)
2 | Nc1cc(O)c(C(=O)O)cc1F [Compound 12, 4-Amino-5-fluorosalicylic Acid] | 6.25 (≈ 36.5 µM) |  | 25 (≈ 146 µM) | ≤ 3.13 | 6.25 (≈ 36.5 µM) | 6.25 (≈ 36.5 µM) | ≤ 3.13
